# Data reported in PubChem BioAssay (NCI).
#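 Briefly, cells in 96-well plates were exposed to five compound concentrations for 48 h, and endpoints were estimated by linear interpolation. At the TGI there is no net growth.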
# Key:
# Assay in all cases: DTP human tumour cell line panel, 48 h
# SK-MEL-5 melanoma = tested on: SK-MEL-5 melanoma
# UACC-62 melanoma = tested on: UACC-62 melanoma
# CCRF-CEM leukemia = tested on: CCRF-CEM leukemia
# HT29 colon = tested on: HT29 colon
# MALME-3M melanoma = tested on: MALME-3M melanoma
# NCI-H23 lung = tested on: NCI-H23 lung
# T-47D breast = tested on: T-47D breast
# UACC-257 melanoma = tested on: UACC-257 melanoma
# DLD-1 colon = tested on: DLD-1 colon
# M19-MEL melanoma = tested on: M19-MEL melanoma
Compound,TGI (SK-MEL-5 melanoma) [µM],TGI (UACC-62 melanoma) [µM],TGI (CCRF-CEM leukemia) [µM],TGI (HT29 colon) [µM],TGI (MALME-3M melanoma) [µM],TGI (NCI-H23 lung) [µM],TGI (T-47D breast) [µM],TGI (UACC-257 melanoma) [µM],TGI (DLD-1 colon) [µM],TGI (M19-MEL melanoma) [µM]
Cc1[nH]c2ccccc2c1C=Nc1ccc(N=Cc2c(C)[nH]c3ccccc23)cc1,93.8,> 100,47.6,> 100,> 100,> 100,> 100,> 100,,
O=C(OCc1ccccc1)C1(N2CN(C3(C(=O)OCc4ccccc4)CCCC3)CN(C3(C(=O)OCc4ccccc4)CCCC3)C2)CCCC1,> 10,> 10,> 10,> 10,> 10,> 10,> 10,> 10,,
CCOC(=O)/C=C(\C(=O)OCC)n1ccc(N)nc1=O,> 100,> 100,60.5,> 100,> 100,> 100,> 100,> 100,,
CN(NC(=O)CCCl)C1=NCCCCN1,> 100,> 100,> 100,> 100,> 100,> 100,> 100,> 100,,
c1ccc2c(c1)CCc1cc3cc4c(nc3nc1-2)-c1ccccc1CC4,,> 100,> 100,,> 100,> 100,,> 100,> 100,> 100
NCCNc1cccc2ccccc12,,> 100,,> 100,> 100,> 100,,> 100,> 100,> 100
Oc1ccc(SCc2cc(O)c(O)c(O)c2)cc1,40.7,41.4,74.4,48.1,> 100,> 100,> 100,> 100,,
C=CCNC(=O)NC1=CSC2=NC(=O)C3(NN12)c1ccccc1-c1ccccc13,> 10,> 10,> 10,> 10,> 10,> 10,> 10,> 10,,
C(=C\c1ccccc1)/C=N/c1nc2cc3sc(/N=C/C=C/c4ccccc4)nc3cc2s1,> 100,> 100,> 100,> 100,> 100,> 100,> 100,> 100,,
NC(=O)c1ccc2c(c1)S(=O)(=O)c1ccccc1C2=O,> 100,> 100,> 100,> 100,> 100,> 100,> 100,> 100,,
CC(C)c1ccc(/C=C2\CSCC3=C2NC(=S)NC3c2ccc(C(C)C)cc2)cc1 (configuration not stated),99.5,> 100,> 100,> 100,> 100,> 100,> 100,> 100,,
O=C(CCCCCCCCC(=O)N1C(=O)CC(=O)N(c2cccc(Cl)c2)C1=S)N1C(=O)CC(=O)N(c2cccc(Cl)c2)C1=S,> 100,84.3,> 100,> 100,> 100,> 100,> 100,> 100,,
COC(=O)n1c(=O)n(-c2ccccc2)c(=O)n1C(=O)OC,> 100,> 100,> 100,> 100,> 100,> 100,> 100,> 100,,
O=c1c(C=Nc2ccc([N+](=O)[O-])cc2)c(O)n(-c2ccccc2)c(=O)n1-c1ccccc1,> 100,> 100,> 100,> 100,> 100,> 100,> 100,> 100,,
COc1cccc(N(CN2CC=CC2=O)C(C)=O)c1,> 100,> 100,> 100,> 100,> 100,> 100,> 100,> 100,,
O=C1Cc2c([nH]c3ccc(Br)cc23)-c2ccccc2N1,> 100,> 100,> 100,> 100,> 100,> 100,> 100,> 100,,
CN(C)Cc1cc(O)c(O)c(CN(C)C)c1,> 100,> 100,61.8,> 100,> 100,> 100,> 100,45.9,,
C=C(CC[C@@H](C(=O)O)[C@H]1[C@H](O)C[C@@]2(C)C3=CC[C@@H](C(=C)C)[C@](C)(CCC(=O)O)C3=CC[C@]12C)C(C)C,36.3,29.1,> 100,32.8,40.8,31.6,50.7,30.6,,
